Assay results: ChEMBL document CHEMBL4619706, “Synthesis, biological evaluation and molecular modeling study of [1,2,4]-Triazolo[4,3-c]quinazolines: New class of EGFR-TK inhibitors” (Bioorg Med Chem, 2020)

Tests used:
HepG2 = test: Anticancer activity against human HepG2 cells assessed as inhibition of cell growth incubated for 24 hrs by MTT assay; assay type: functional, cell-based; settings: HepG2, 24 h
MCF7 [1] = test: Anticancer activity against human MCF7 cells assessed as inhibition of cell growth incubated for 24 hrs by MTT assay; assay type: functional, cell-based; settings: MCF7, 24 h
PC-3 = test: Anticancer activity against human PC3 cells assessed as inhibition of cell growth incubated for 24 hrs by MTT assay; assay type: functional, cell-based; settings: PC-3, 24 h
HCT-116 = test: Anticancer activity against human HCT116 cells assessed as inhibition of cell growth incubated for 24 hrs by MTT assay; assay type: functional, cell-based; settings: HCT-116, 24 h
HeLa = test: Anticancer activity against human HeLa cells assessed as inhibition of cell growth incubated for 24 hrs by MTT assay; assay type: functional, cell-based
[2] = target: Epidermal growth factor receptor (Homo sapiens, UniProt P00533); test: Inhibition of human EGFR-TK using PTK substrate after 40 mins in presence of ATP by Kinase-Glo luminescent assay
MCF7 [3] = test: Induction of apoptosis in human MCF7 cells assessed after 24 hrs by Annexin V-FITC/propidium iodide double staining based FACSCalibur flow cytometry analysis; assay type: functional, cell-based
MCF7 [4] = test: Induction of apoptosis in human MCF7 cells assessed as viable cells after 24 hrs by Annexin V-FITC/propidium iodide double staining based FACSCalibur flow cytometry analysis (reference value: 97.89 %); assay type: functional
MCF7 [5] = test: Induction of apoptosis in human MCF7 cells assessed as early apoptotic cells after 24 hrs by Annexin V-FITC/propidium iodide double staining based FACSCalibur flow cytometry analysis (reference value: 1.22 %); assay type: functional
MCF7 [6] = test: Induction of apoptosis in human MCF7 cells assessed as late apoptotic cells after 24 hrs by Annexin V-FITC/propidium iodide double staining based FACSCalibur flow cytometry analysis (reference value: 0.43 %); assay type: functional
MCF7 [7] = test: Induction of apoptosis in human MCF7 cells assessed as necrotic cells after 24 hrs by Annexin V-FITC/propidium iodide double staining based FACSCalibur flow cytometry analysis (reference value: 0.46 %); assay type: functional
MCF7 [8] = test: Induction of apoptosis in human MCF7 cells assessed as cumulative apoptosis after 24 hrs by Annexin V-FITC/propidium iodide double staining based FACSCalibur flow cytometry analysis (reference value: 2.11 %); assay type: functional
MCF7 [9] = test: Cell cycle arrest in human MCF7 cells assessed as accumulation of cells at G0/G1 phase at IC50 after 24 hrs by propidium iodide/RNase staining based FACSCalibur flow cytometry analysis (reference value: 57.28 %); assay type: functional
MCF7 [10] = test: Cell cycle arrest in human MCF7 cells assessed as accumulation of cells at S phase at IC50 after 24 hrs by propidium iodide/RNase staining based FACSCalibur flow cytometry analysis (reference value: 26.49 %); assay type: functional
MCF7 [11] = test: Cell cycle arrest in human MCF7 cells assessed as accumulation of cells at G2/M phase at IC50 after 24 hrs by propidium iodide/RNase staining based FACSCalibur flow cytometry analysis (reference value: 16.23 %); assay type: functional
MCF7 [12] = test: Cell cycle arrest in human MCF7 cells assessed as accumulation of cells at pre-G1 phase at IC50 after 24 hrs by propidium iodide/RNase staining based FACSCalibur flow cytometry analysis (reference value: 2.11 %); assay type: functional

Chain of Epidermal growth factor receptor (P00533 whole entry): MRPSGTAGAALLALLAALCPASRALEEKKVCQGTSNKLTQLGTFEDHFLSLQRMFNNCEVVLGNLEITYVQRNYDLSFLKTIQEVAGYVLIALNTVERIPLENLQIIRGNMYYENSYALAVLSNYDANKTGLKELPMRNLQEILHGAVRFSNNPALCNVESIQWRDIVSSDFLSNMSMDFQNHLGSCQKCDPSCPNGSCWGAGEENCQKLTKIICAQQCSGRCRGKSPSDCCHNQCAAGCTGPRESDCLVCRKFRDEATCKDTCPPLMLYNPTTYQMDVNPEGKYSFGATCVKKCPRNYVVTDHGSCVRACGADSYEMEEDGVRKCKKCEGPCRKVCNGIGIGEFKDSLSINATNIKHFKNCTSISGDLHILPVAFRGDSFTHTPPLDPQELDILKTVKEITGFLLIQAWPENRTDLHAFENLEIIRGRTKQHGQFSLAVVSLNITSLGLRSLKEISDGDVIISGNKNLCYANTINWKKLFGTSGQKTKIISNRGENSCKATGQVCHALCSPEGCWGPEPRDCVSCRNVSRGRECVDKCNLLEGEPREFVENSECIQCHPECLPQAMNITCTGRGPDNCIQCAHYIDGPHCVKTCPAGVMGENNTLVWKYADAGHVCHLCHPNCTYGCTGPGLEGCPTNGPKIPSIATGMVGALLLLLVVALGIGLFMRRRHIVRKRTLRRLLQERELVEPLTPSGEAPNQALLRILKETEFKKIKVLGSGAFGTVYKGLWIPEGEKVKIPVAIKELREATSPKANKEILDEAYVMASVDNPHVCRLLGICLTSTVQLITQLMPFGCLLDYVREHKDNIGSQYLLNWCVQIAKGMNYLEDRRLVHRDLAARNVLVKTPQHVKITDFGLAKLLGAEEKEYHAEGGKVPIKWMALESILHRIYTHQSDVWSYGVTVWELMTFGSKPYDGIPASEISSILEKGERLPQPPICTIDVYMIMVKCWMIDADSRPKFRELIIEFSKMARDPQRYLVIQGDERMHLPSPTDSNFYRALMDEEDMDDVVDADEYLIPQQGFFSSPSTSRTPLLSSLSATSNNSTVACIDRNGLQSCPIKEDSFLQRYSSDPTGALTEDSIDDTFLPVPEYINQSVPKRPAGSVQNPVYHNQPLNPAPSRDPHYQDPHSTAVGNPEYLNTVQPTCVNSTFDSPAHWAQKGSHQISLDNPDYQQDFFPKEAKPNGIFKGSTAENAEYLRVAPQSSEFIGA

C(=N\c1nnc2c3ccccc3nc(Nc3ccccc3)n12)/c1ccccc1
IC50 (HepG2): 19.2 µM | IC50 (MCF7 [1]): 20.3 µM | IC50 (PC-3): 12.6 µM | IC50 (HCT-116): 24.8 µM | IC50 (HeLa): 22.3 µM

Nc1nc(Nc2nnc3c4ccccc4nc(Sc4ccc(Br)cc4)n23)cs1
IC50 (HepG2): 10.3 µM | IC50 (MCF7 [1]): 8.9 µM | IC50 (PC-3): 10.5 µM | IC50 (HCT-116): 11.5 µM | IC50 (HeLa): 13.4 µM | IC50 [2]: 0.69 µM | Activity (MCF7 [3]): Dose-dependent effect | Activity (MCF7 [4]): 72.85% | Activity (MCF7 [5]): 7.58% | Activity (MCF7 [6]): 17.3% | Activity (MCF7 [7]): 2.27% | Activity (MCF7 [8]): 27.15% | Activity (MCF7 [9]): 35.76% | Activity (MCF7 [10]): 22.81% | Activity (MCF7 [11]): 41.43% | Activity (MCF7 [12]): 27.15%

c1ccc(N2CCN(CCCNc3ccc(Oc4nc5ccccc5c5nncn45)cc3)CC2)cc1
IC50 (HepG2): 24.2 µM | IC50 (MCF7 [1]): 30.5 µM | IC50 (PC-3): 51.5 µM | IC50 (HCT-116): 32.5 µM | IC50 (HeLa): 23.4 µM

N#CC1=C(N)N(c2nnc3c4ccccc4nc(Sc4ccc(Br)cc4)n23)C(=O)C1
IC50 (HepG2): 15.3 µM | IC50 (MCF7 [1]): 8.58 µM | IC50 (PC-3): 10.6 µM | IC50 (HCT-116): 13.5 µM | IC50 (HeLa): 9.47 µM | IC50 [2]: 1.8 µM | Activity (MCF7 [3]): Dose-dependent effect | Activity (MCF7 [4]): 80.59% | Activity (MCF7 [5]): 7.26% | Activity (MCF7 [6]): 10.26% | Activity (MCF7 [7]): 1.89% | Activity (MCF7 [8]): 19.41% | Activity (MCF7 [9]): 41.33% | Activity (MCF7 [10]): 25.46% | Activity (MCF7 [11]): 33.21% | Activity (MCF7 [12]): 19.41%

O=C1CSCC(=O)N1c1nnc2c3ccccc3nc(Sc3ccc(Br)cc3)n12
IC50 (HepG2): 8.43 µM | IC50 (MCF7 [1]): 9.48 µM | IC50 (PC-3): 10.7 µM | IC50 (HCT-116): 12 µM | IC50 (HeLa): 11.8 µM | IC50 [2]: 4.1 µM

O=[N+]([O-])c1cccc(/C=N/c2nnc3c4ccccc4nc(Cl)n23)c1
IC50 (HepG2): 55.5 µM | IC50 (MCF7 [1]): 48.2 µM | IC50 (PC-3): 60.2 µM | IC50 (HCT-116): 49.2 µM | IC50 (HeLa): 73.4 µM

O=C(Nc1nnc2c3ccccc3nc(Sc3ccc(Br)cc3)n12)c1ccccc1
IC50 (HepG2): 32.4 µM | IC50 (MCF7 [1]): 30.2 µM | IC50 (PC-3): 29.9 µM | IC50 (HCT-116): 44.2 µM | IC50 (HeLa): 46.4 µM

Clc1nc2ccccc2c2nnc(/N=C/C=C/c3ccccc3)n12
IC50 (HepG2): 11.6 µM | IC50 (MCF7 [1]): 8.34 µM | IC50 (PC-3): 16.4 µM | IC50 (HCT-116): 12.9 µM | IC50 (HeLa): 9.16 µM | IC50 [2]: 7.56 µM

CCN1CCN(CCCNc2ccc(Oc3nc4ccccc4c4nncn34)cc2)CC1
IC50 (HepG2): 11.5 µM | IC50 (MCF7 [1]): 12.9 µM | IC50 (PC-3): 10.6 µM | IC50 (HCT-116): 13.8 µM | IC50 (HeLa): 14.3 µM | IC50 [2]: 9.51 µM

COc1ccc(/C=N/c2nnc3c4ccccc4nc(Cl)n23)cc1O
IC50 (HepG2): 49.2 µM | IC50 (MCF7 [1]): 37.2 µM | IC50 (PC-3): 33.5 µM | IC50 (HCT-116): 31 µM | IC50 (HeLa): 29.4 µM

Clc1nc2ccccc2c2nnc(/N=C/c3ccco3)n12
IC50 (HepG2): 15 µM | IC50 (MCF7 [1]): 9.73 µM | IC50 (PC-3): 21.7 µM | IC50 (HCT-116): 14.8 µM | IC50 (HeLa): 18.9 µM | IC50 [2]: 0.74 µM | Activity (MCF7 [3]): Dose-dependent effect | Activity (MCF7 [4]): 91.44% | Activity (MCF7 [5]): 2.92% | Activity (MCF7 [6]): 4.22% | Activity (MCF7 [7]): 1.42% | Activity (MCF7 [8]): 8.56% | Activity (MCF7 [9]): 46.72% | Activity (MCF7 [10]): 30.19% | Activity (MCF7 [11]): 23.09% | Activity (MCF7 [12]): 8.56%

Nc1ccc(Oc2nc3ccccc3c3nncn23)cc1
IC50 (HepG2): 26.2 µM | IC50 (MCF7 [1]): 20.5 µM | IC50 (PC-3): 26.7 µM | IC50 (HCT-116): 27.6 µM | IC50 (HeLa): 25.7 µM

c1ccc2c(c1)nc(Oc1ccc(NCCCN3CCOCC3)cc1)n1cnnc21
IC50 (HepG2): 46.2 µM | IC50 (MCF7 [1]): 38.5 µM | IC50 (PC-3): 41.6 µM | IC50 (HCT-116): 39.6 µM | IC50 (HeLa): 44.3 µM

Clc1nc2ccccc2c2nnc(/N=C/c3ccccc3)n12
IC50 (HepG2): 19.3 µM | IC50 (MCF7 [1]): 17.1 µM | IC50 (PC-3): 27.5 µM | IC50 (HCT-116): 22.5 µM | IC50 (HeLa): 34.7 µM

CN1CCN(CC(=O)Nc2nnc3c4ccccc4nc(Sc4ccc(Br)cc4)n23)CC1
IC50 (HepG2): 27.2 µM | IC50 (MCF7 [1]): 24.4 µM | IC50 (PC-3): 41.7 µM | IC50 (HCT-116): 44.9 µM | IC50 (HeLa): 35.1 µM

Nc1nnc2c3ccccc3nc(Sc3ccc(Br)cc3)n12
IC50 (HepG2): 44.9 µM | IC50 (MCF7 [1]): 57.3 µM | IC50 (PC-3): 59.5 µM | IC50 (HCT-116): 63.5 µM | IC50 (HeLa): 45.2 µM

O=C(CCl)Nc1nnc2c3ccccc3nc(Sc3ccc(Br)cc3)n12
IC50 (HepG2): 29.9 µM | IC50 (MCF7 [1]): 34.4 µM | IC50 (PC-3): 37.1 µM | IC50 (HCT-116): 37.5 µM | IC50 (HeLa): 30.4 µM

O=C(Nc1nnc2c3ccccc3nc(Sc3ccc(Br)cc3)n12)c1ccc(Cl)c([N+](=O)[O-])c1
IC50 (HepG2): 18.2 µM | IC50 (MCF7 [1]): 19.8 µM | IC50 (PC-3): 16.8 µM | IC50 (HCT-116): 20.4 µM | IC50 (HeLa): 16.2 µM

COc1ccc(/C=N/c2nnc3c4ccccc4nc(Nc4ccc(C)cc4N)n23)cc1O
IC50 (HepG2): 9.8 µM | IC50 (MCF7 [1]): 12.3 µM | IC50 (PC-3): 17.7 µM | IC50 (HCT-116): 8.27 µM | IC50 (HeLa): 10.1 µM | IC50 [2]: 4.28 µM

COc1cccc2c1C(=O)c1c(O)c3c(c(O)c1C2=O)C[C@@](O)(C(=O)CO)C[C@@H]3O[C@H]1C[C@H](N)[C@H](O)[C@H](C)O1 [DOXORUBICIN]
Activity (MCF7 [4]): 67.84% | Activity (MCF7 [5]): 9.28% | Activity (MCF7 [6]): 19.81% | Activity (MCF7 [7]): 3.07% | Activity (MCF7 [8]): 32.16% | Activity (MCF7 [9]): 32.16% | Activity (MCF7 [10]): 22.91% | Activity (MCF7 [11]): 48.57% | Activity (MCF7 [12]): 32.16%

Fc1ccc(/C=N/c2nnc3c4ccccc4nc(Cl)n23)cc1
IC50 (HepG2): 31.2 µM | IC50 (MCF7 [1]): 25.9 µM | IC50 (PC-3): 38.5 µM | IC50 (HCT-116): 18.5 µM | IC50 (HeLa): 29.2 µM

O=[N+]([O-])c1cccc(/C=N/c2nnc3c4ccccc4nc(Nc4ccccc4)n23)c1
IC50 (HepG2): 44.1 µM | IC50 (MCF7 [1]): 40.4 µM | IC50 (PC-3): 35.7 µM | IC50 (HCT-116): 34.6 µM | IC50 (HeLa): 31.4 µM

Cc1cccc(Nc2nc3ccccc3c3nnc(/N=C/c4ccc(F)cc4)n23)c1
IC50 (HepG2): 24.2 µM | IC50 (MCF7 [1]): 18.2 µM | IC50 (PC-3): 30.5 µM | IC50 (HCT-116): 20.4 µM | IC50 (HeLa): 26.5 µM

CN1CCN(CCCNc2ccc(Oc3nc4ccccc4c4nncn34)cc2)CC1
IC50 (HepG2): 16.5 µM | IC50 (MCF7 [1]): 15.3 µM | IC50 (PC-3): 14.3 µM | IC50 (HCT-116): 17.2 µM | IC50 (HeLa): 12.5 µM

Nc1cc([N+](=O)[O-])ccc1Nc1nc2ccccc2c2nnc(/N=C/C=C/c3ccccc3)n12
IC50 (HepG2): 13.7 µM | IC50 (MCF7 [1]): 32.7 µM | IC50 (PC-3): 25.2 µM | IC50 (HCT-116): 11.6 µM | IC50 (HeLa): 36.1 µM

C(=N\c1nnc2c3ccccc3nc(Nc3ccccc3)n12)/c1ccco1
IC50 (HepG2): 20.8 µM | IC50 (MCF7 [1]): 19.7 µM | IC50 (PC-3): 43.9 µM | IC50 (HCT-116): 24.4 µM | IC50 (HeLa): 15.5 µM

CCN1CCN(CC(=O)Nc2nnc3c4ccccc4nc(Sc4ccc(Br)cc4)n23)CC1
IC50 (HepG2): 11.6 µM | IC50 (MCF7 [1]): 12.5 µM | IC50 (PC-3): 10.7 µM | IC50 (HCT-116): 15.2 µM | IC50 (HeLa): 15.4 µM | IC50 [2]: 3.91 µM

O=C(CN1CCOCC1)Nc1nnc2c3ccccc3nc(Sc3ccc(Br)cc3)n12
IC50 (HepG2): 50.3 µM | IC50 (MCF7 [1]): 55.6 µM | IC50 (PC-3): 61.5 µM | IC50 (HeLa): 47.1 µM
